Test results published in ChEMBL document CHEMBL1201862, “PubChem BioAssay data set” (2004).
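In this assay, cells in 96-well plates receive the compound at five concentrations for 48 hours. Endpoints are linearly interpolated between the surrounding concentrations. GI50: concentration for 50% inhibition of growth.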 Calls of active or inactive are those of the source. Cut-off read from the data, not from the text of the source: active = GI50 up to about 1.1 µM and inactive = higher.

How the values were obtained:
Experiment in all cases: NCI anticancer screen, dose series, 48 h
LOX IMVI = system: LOX IMVI
SF-268 = system: SF-268
HT-29 = system: HT-29
RXF 393 = system: RXF 393
OVCAR-3 = system: OVCAR-3
SF-539 = system: SF-539
U-251 = system: U-251
HOP-62 = system: HOP-62
KM12 = system: KM12
NCI-H522 = system: NCI-H522
HOP-18 = system: HOP-18
786-0 = system: 786-0
K562 = system: K562
OVCAR-4 = system: OVCAR-4
SNB-19 = system: SNB-19
Malme-3M = system: Malme-3M
SF-295 = system: SF-295

Measured: GI50

COC(=O)C(=O)C(C(C)=O)C(=O)NCc1ccc(OC)c(OC)c1 (stereo not drawn)
inactive: LOX IMVI > 100 µM | SF-268 > 100 µM | HT-29 > 100 µM | RXF 393 78.5 µM | OVCAR-3 > 100 µM | SF-539 > 100 µM | U-251 > 100 µM | HOP-62 > 100 µM | KM12 > 100 µM | NCI-H522 > 100 µM | HOP-18 > 100 µM | 786-0 > 100 µM | K562 > 100 µM | OVCAR-4 > 100 µM | SNB-19 > 100 µM | Malme-3M > 100 µM | SF-295 > 100 µM

COC(=O)c1cc(C(=O)OC)c(CC(=O)C(=O)NC2C3CC4CC(C3)CC2C4)nc1CC(=O)C(=O)NC1C2CC3CC(C2)CC1C3 (stereo not drawn)
inactive: LOX IMVI > 100 µM | SF-268 > 100 µM | HT-29 > 100 µM | RXF 393 > 100 µM | OVCAR-3 > 100 µM | SF-539 > 100 µM | U-251 > 100 µM | HOP-62 > 100 µM | KM12 > 100 µM | NCI-H522 > 100 µM | HOP-18 > 100 µM | 786-0 > 100 µM | K562 > 100 µM | OVCAR-4 > 100 µM | SNB-19 > 100 µM | Malme-3M > 100 µM | SF-295 > 100 µM

COC1(OC)CC2CCCCC2=C(C)N1S(=O)(=O)c1ccccc1 (stereo not drawn)
inactive: LOX IMVI > 100 µM | SF-268 > 100 µM | HT-29 > 100 µM | RXF 393 > 100 µM | OVCAR-3 > 100 µM | SF-539 > 100 µM | U-251 > 100 µM | HOP-62 > 100 µM | KM12 > 100 µM | NCI-H522 > 100 µM | HOP-18 > 100 µM | 786-0 > 100 µM | K562 > 100 µM | OVCAR-4 > 100 µM | SNB-19 > 100 µM | Malme-3M > 100 µM | SF-295 > 100 µM

CCN(CC)c1ccc(/N=N/c2ccc(-c3nc4cccn(C)c-4n3)cc2)cc1
inactive: LOX IMVI 2.52 µM | SF-268 13.2 µM | HT-29 1.98 µM | RXF 393 3.21 µM | OVCAR-3 10.5 µM | SF-539 12.7 µM | U-251 3.92 µM | HOP-62 10.4 µM | KM12 8.95 µM | NCI-H522 7.11 µM | HOP-18 40.1 µM | 786-0 4.09 µM | K562 2.86 µM | OVCAR-4 11.2 µM | SNB-19 15.6 µM | Malme-3M 12.1 µM | SF-295 5.04 µM
